Experimental data taken from US20240374726A1, “BAG6 SPECIFIC CHIMERIC ANTIGEN RECEPTOR, NUCLEIC ACID, BAG6 SPECIFIC CHIMERIC ANTIGEN RECEPTOR EXPRESSION PLASMID, BAG6 SPECIFIC CHIMERIC ANTIGEN RECEPTOR EXPRESSING CELL, USE THEREOF, AND PHARMACEUTICAL COMPOSITION FOR TREATING CANCER” (China Medical University Hospital, priority 2023, published 2024).
Where “and” joins values, the source holds several entries; their conditions need not be identical. Equal entries are not always repeated.

How the values were obtained:
Format in all cases: cell-based
[1] = tested on: HLA-G on the plasma membrane of the human ovarian cancer cell line SKOV3; experiment: expression level of HLA-G, flow cytometry; details: carboplatin 20 μM, 48 hours, versus untreated control
Procedure: (§1) To explore whether treatment with the chemotherapy drug affects the expression of BAG6, HLA-G and B7-H6 on the cell membrane of tumor cells, the tumor cells used were human breast cancer cell line MDA-MB-231, human malignant brain tumor cell line DBTRG-05MG (hereinafter referred to as DBTRG), human pancreatic cancer cell line AsPC-1, and human ovarian cancer cell line SKOV3. The tumor cells used were all purchased from the American Type Culture Collection (ATCC). The human breast cancer cell line MDA-MB-231 is a triple-negative breast cancer cell line, that is, the hormone receptor (ER, PR) and HER-2 receptor thereof are negative, and the human breast cancer cell line MDA-MB-231 was cultured in RPMI culture medium including 10% fetal bovine serum (FBS). The human malignant brain tumor cell line DBTRG was cultured in DMEM culture medium including 10% FBS. The human pancreatic cancer cell line AsPC-1 was cultured in RPMI culture medium including 10% FBS. The human ovarian cancer cell line SKOV3 was cultured in McCoy's 5A culture medium including 10% FBS.

[2] = tested on: B7-H6 on the plasma membrane of the human ovarian cancer cell line SKOV3; experiment: expression level of B7-H6, flow cytometry; details: carboplatin 20 μM, 48 hours, versus untreated control
Procedure: as §1

[3] = tested on: BAG6 on the plasma membrane of the human ovarian cancer cell line SKOV3; experiment: expression level of BAG6, immunofluorescence staining and flow cytometry; details: carboplatin 20 μM, 48 hours, versus untreated control
Procedure: as §1

[4] = tested on: HLA-G on the plasma membrane of the human breast cancer cell line MDA-MB-231; experiment: expression level of HLA-G, flow cytometry; details: doxorubicin 200 nM, 48 hours, versus untreated control
Procedure: as §1

[5] = tested on: B7-H6 on the plasma membrane of the human breast cancer cell line MDA-MB-231; experiment: expression level of B7-H6, flow cytometry; details: doxorubicin 200 nM, 48 hours, versus untreated control
Procedure: as §1

[6] = tested on: BAG6 on the plasma membrane of the human breast cancer cell line MDA-MB-231; experiment: expression level of BAG6, immunofluorescence staining and flow cytometry; details: doxorubicin 200 nM, 48 hours, versus untreated control
Procedure: as §1

[7] = tested on: human malignant brain tumor cell line DBTRG; experiment: tumor cell death, Annexin V-FITC/PI flow cytometry (cytotoxicity); details: group 1: chemotherapy drug alone, temozolomide 80 μg/mL, three independent trials
Procedure: The cells were subsequently incubated for 48 hours. Each type of the tumor cells was divided into six groups. In a control, the tumor cells were untreated. In a group 1, the tumor cells were treated with the chemotherapy drug. In a group 2, the tumor cells were treated with the parental primary T lymphocyte. In a group 3, the tumor cells are treated with the parental primary T lymphocyte and the chemotherapy drug. In a group 4, the tumor cells were treated with Example 1. In a group 5, the tumor cells were treated with Example 1 and the chemotherapy drug. […] In the group 4 and the group 5, the number of Example 1 treated was 1×10^5 cells. […] The treated cells of each group were stained with Annexin V-FITC and propidium iodide (PI), and the apoptosis and the death of the tumor cells were detected by the flow cytometry. The sum of the percentage of cells stained with Annexin V-FITC and/or PI were calculated to obtain the cytotoxicity. The results of the cytotoxicity were counted after three independent trials in each group.
The cells were subsequently incubated for 48 hours. […] The treated cells of each group were stained with Annexin V-FITC and PI, and the apoptosis and the death of the tumor cells were detected by the flow cytometry. The sum of the percentage of cells stained with Annexin V-FITC and/or PI were calculated to obtain the cytotoxicity. […]

## N.N.O=C([O-])C1(C(=O)[O-])CCC1.[Pt+2] [carboplatin]
[1]
  expression of HLA-G on the plasma membrane: increase the expression of HLA-G
[2]
  expression of B7-H6 on the plasma membrane: increase the expression of B7-H6
[3]
  expression of BAG6 on the plasma membrane: increase the expression of BAG6

## COc1cccc2c1C(=O)c1c(O)c3c(c(O)c1C2=O)C[C@@](O)(C(=O)CO)C[C@@H]3O[C@H]1C[C@H](N)[C@H](O)[C@H](C)O1 [doxorubicin]
[4]
  expression of HLA-G on the plasma membrane: increase the expression of HLA-G
[5]
  expression of B7-H6 on the plasma membrane: increase the expression of B7-H6
[6]
  expression of BAG6 on the plasma membrane: increase the expression of BAG6

## Cn1nnc2c(C(N)=O)ncn2c1=O [temozolomide]
[7]
  death rate: 8.4033% and 14.9267% and 5.5450% and 11.7933% and 13.9750%
